# What was measured:
# Assay in all cases: pTyr-Var library bacterial peptide display kinase screen (enrichment scores)
# [1] = system: EPHB1 kinase domain; assay type: biochemical, human; details: for Screen: sheet EPHB1, effect of the variant peptide relative to its reference peptide in the pTyr-Var library screen (enrichment scores); for Screen (variant relative to reference peptide, measured in the pTyr-Var library screen): sheet "EPHB1", variant seq vs reference seq, bacterial peptide display enrichment
# [2] = system: EPHB2 kinase domain; assay type: biochemical, human; details: sheet EPHB2;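 further: log2 fold change in enrichment of variant over reference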
# [3] = biological target: c-Src kinase domain (Homo sapiens, UniProt P12931); assay type: biochemical; details: sheet "Src";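 further: log2 fold change in enrichment of variant over reference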
# [4] = biological target: T1, c-Abl kinase domain (Mus musculus, UniProt P00520); assay type: biochemical;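 further: log2 fold change in enrichment of variant over reference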
# T1 sequence (P00520 242-493 limits assumed): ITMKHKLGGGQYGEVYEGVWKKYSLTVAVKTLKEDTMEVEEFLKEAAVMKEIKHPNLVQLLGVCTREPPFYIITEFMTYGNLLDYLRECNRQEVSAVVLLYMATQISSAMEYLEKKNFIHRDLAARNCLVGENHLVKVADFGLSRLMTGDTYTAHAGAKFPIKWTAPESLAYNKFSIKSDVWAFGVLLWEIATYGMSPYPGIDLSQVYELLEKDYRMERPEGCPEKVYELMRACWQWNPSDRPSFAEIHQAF
# [5] = system: Fer kinase domain; assay type: biochemical, mouse; details: sheet "Fer";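 further: log2 fold change in enrichment of variant over reference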
# [6] = effect of variant peptide relative to its reference peptide in the pTyr-Var library screen (enrichment scores)
# [7] = effect of the variant peptide relative to its reference peptide in the pTyr-Var library screen
# [8] = variant peptide versus its reference peptide in the pTyr-Var library screen
# [9] = fig5-data2, sheet "Abl", Screen for the variant/reference peptide pair, pTyr-Var library
# [10] = variant peptide relative to its reference peptide, pTyr-Var library screen enrichment
# [11] = value of the variant peptide against its reference peptide in the pTyr-Var library screen with Fer
# [12] = sheet "Abl", effect of variant peptide relative to its reference peptide in pTyr-Var library screen (enrichment)
sequence,measurement,setting,value
LGSVVYAQSKE [KCNQ2_Y226_H228Q],Screen,[1],1.461
LGSWTYPKTVS [ROS1_Y144_T145P],Screen,[1],-2.133
LIGWRYDDPEV [HSPA9_Y128_R126W],Screen,[2]; [6],-0.9592
LITILYIGFLG [KCNQ1_Y267_T265I],Screen,[3]; [7],-1.468
LITLVYGCSRQ [TMPRSS6_Y290_S288L],Screen,[3]; [8],-0.7056
LLQAEYWHDPI [PPT1_Y185_V181L],Screen,[4]; [9],0.8908
LRFDSYWSFCN [SLC20A2_Y433_S434W_YF],Screen,[3]; [8],2.108
LVKDPYVMFPQ [PLEKHG2_Y489_P484L],Screen,[4]; [9],1.829
same,Screen,[3]; [8],0.6915
LVQAEYWHDRI [PPT1_Y185_P189R],Screen,[4]; [9],0.6024
MGGSLYFSFPD [HIKESHI_Y55_V54L_YF],Screen,[1],2.816
same,Screen,[3]; [7],0.1907
same,Screen,[2]; [6],2.441
MIHSAYALGGL [CPS1_Y590_R587H],Screen,[4]; [9],-0.66
MNLLGYRQVRS [CHST4_Y359_H361Q],Screen,[4]; [9],-1.908
MVSLFYGTAIF [OR10C1_Y251_L255I],Screen,[3]; [8],-0.3478
MWGSDYVHLSR [MAP3K4_Y582_Q584H],Screen,[1],-1.547
same,Screen,[2]; [6],-2.255
NRLTDYFELLL [BBS10_Y536_P539L_YF],Screen,[1],-2.013
NTADFYDLFGG [PTPN11_Y63_G60A_YF],Screen,[5]; [10],-0.1929
same,Screen,[3]; [8],-0.001161
NTVDFYDLFGG [PTPN11_Y63_G60V_YF],Screen,[5]; [10],-0.946
same,Screen,[3]; [8],-0.792
PEAALYGRFTF [FYN_Y440_I445F],Screen,[5]; [11],0.7423
same,Screen,[3]; [7],0.2008
PESIMYWKFTT [NTRK3_Y744_R745W],Screen,[5]; [11],1.613
same,Screen,[3]; [8],2.713
PFAEPYADFGG [APBA1_Y187_S184A_YF],Screen,[3]; [7],-0.451
PLDGEYFTLHI [TP53_Y327_Q331H],Screen,[3]; [8],-0.3825
PLDGEYFTLRI [TP53_Y327_Q331R],Screen,[3]; [8],-0.2935
PLQNTYNFNVL [SLC4A1_Y553_K551N_YF],Screen,[3]; [8],2.669
PRIHSYRGHLW [VHL_Y112_R107P],"Screen (variant relative to reference peptide, measured in the pTyr-Var library screen)",[1],-0.7646
same,Screen,[3]; [8],-2.322
QADVTYVNTQL [MERTK_Y872_I871T],Screen,[5]; [11],-3.553
same,Screen,[1],-1.632
QGCGIYKDFFR [PLA2G2D_Y82_S80G_YF],Screen,[3]; [8],-0.1018
QNKEDYDGLKE [GSTO1_Y139_A140D],Screen,[5]; [11],-0.3459
QNTADYFDLFG [PTPN11_Y62_G60A_YF],Screen,[1],-0.5569
same,Screen,[3]; [8],-1.145
same,Screen,[2]; [6],-0.5539
QNTGNYFDLFG [PTPN11_Y62_D61N_YF],Screen,[1],0.2097
same,Screen,[3]; [8],-1.162
same,Screen,[2]; [6],0.1444
RCQDLYSARDL [SART1_Y249_R245C],Screen,[5]; [10],2.483
same,Screen,[1],1.546
same,Screen,[3]; [8],2.461
RFGRKYKKVRF [F8_Y442_I438F],Screen,[4]; [9],-0.368
RGDVIYKGFED [NFU1_Y194_G189R],Screen,[3]; [8],-0.4435
RKPDIYGRLAS [MCM4_Y459_E460G],Screen,[3]; [7],0.1835
RLEPVYFVAPA [LAMC2_Y250_D247E],Screen,[1],0.4539
same,Screen,[3]; [7],-0.2779
same,Screen,[2]; [6],0.4501
RLGDLYKEEMR [VIM_Y150_E151K],Screen,[4]; [12],1.898
RMDGKYACSFT [FLNB_Y704_T703K_YF],Screen,[3]; [7],-2.226
RQQEVYLLFKQ [RARRES1_Y159_D158V_YF],Screen,[4]; [9],1.344
RRIHSYRRHLW [VHL_Y112_G114R],"Screen (variant relative to reference peptide, measured in the pTyr-Var library screen)",[1],-1.158
same,Screen,[3]; [8],-2.73
RVFIKYLPEWT [PSEN1_Y240_L235R],Screen,[4]; [9],0.4533
SDVDLYQVRIA [PSMD9_Y70_T74I],Screen,[3]; [8],0.1663
SGADSYEMEED [EGFR_Y316_C311S],Screen,[4]; [9],1.025
SILAVYSKDIF [PANK2_Y400_N404I_YF],Screen,[3]; [8],-0.2771
SLIDGYFRLTE [JAK2_Y372_A377E_YF],Screen,[4]; [9],-1.303
SVTCPYSPALN [TP53_Y126_T125P],Screen,[3]; [8],1.73
TEGNGYISFNE [LCP1_Y28_D24E],Screen,[4]; [9],0.5821
TENAGYFFRIS [TTN_Y31721_V31725I_YF],Screen,[4]; [12],-1.38
TSIGNYFKPWF [DHCR24_Y299_N294T_YF],Screen,[1],0.02902
same,Screen,[2]; [6],-0.167
TSKLSYLDPRI [TOP1_Y723_N722S],"Screen (variant relative to reference peptide, measured in the pTyr-Var library screen)",[1],-2.938
same,Screen,[2]; effect of the variant relative to its reference peptide in the pTyr-Var library screen,-1.966
TTEHIYGDKFF [UBA7_Y524_N527K],Screen,[5]; [10],-2.246
same,Screen,[3]; [8],0.1479
VITTLYIGFLG [KCNQ1_Y267_L262V],Screen,[3]; [7],-0.844
WQQQSYLDSEI [CTNNB1_Y30_G34E],Screen,[4]; [9],2.603
